Earlier results, collected in patent US20230165822A1, “URINARY ALKALIZING MEDICINAL AND/OR PHARMACEUTICAL COMPOSITION FOR THE ORAL TREATMENT OF INTERSTITIAL CYSTITIS / BLADDER PAIN SYNDROME (IC/BPS) AND FORMULATION THEREOF” (priority 2020, published 2023).

Details: in vivo

share reaching the bladder: only a fraction
SMILES: CC(=O)/N=c1/sc(S(N)(=O)=O)nn1C [Methazolamide]
